Assay results as given in US12589160B2, “Peptide-derived therapeutics targeting KDM5C for the treatment of cancer” (NUVOBIO CORPORATION, priority 2019, dated 2026).

Columns and labels:
KDM5 = conditions: given as 'in vivo'; Vinogradova et al., 2016; read-out: IC50 of KDM5 inhibition; cited from earlier work
[1] = test system: H3K4me3 levels in HCT 116 cells; test: Histone H3K4me3 status by western blot of histone extracts; format: cell-based; conditions: for global H3K4me3 levels: HCT 116
Method: FIG. 9. Comparison of KDM5 inhibitors, EP4-TAT and CPI-455. […] (B) Relative H3K4me3 levels were monitored in histone extracts from HCT 116 cells.
The EP4-TAT inhibitor from all the above experiments were tested for histone methylation status in HCT 116 cells. 3×10^6 cells were plated in 10 cm dish and incubated overnight. Cells were then treated with the inhibitors at various concentrations (0.001 to 15 μM). Cells (5×10^6 cells/mL), 24 hr of post dosing, were collected in 15 mL falcon tube and centrifuged at 300×g for 10 min. The supernatant was discarded and the cells are washed with iced cold PBS. The cell pellet is flash-frozen in liquid nitrogen and stored at −80° C. Histone isolation is done using standard protocol. To summarize, cells were re-suspended in 1 mL hypotonic lysis buffer (10 mM Tris-HCl pH 8, 1 mM KCl, 1.5 mM MgCl2 and 1 mM DTT) containing protease inhibitor. The cells were transferred to 1.5 mL tube and incubated for 30 min on rotor at 4° C. to promote hypotonic swelling and lysis. The intact nuclei are collected by centrifugation at 10,000×g for 10 min in a cooled tabletop centrifuge. The supernatant is entirely discarded and pellets were re-suspended completely in 600 μL 0.4N H2SO4 and incubated overnight on rotor at 4° C. The nuclear debris were removed by centrifugation at 16,000×g for 10 min. The supernatant containing the histones were transferred to a fresh 1.5 mL tube and precipitated by adding 195 μL TCA (33%) drop by drop. The reaction is incubated at 4° C. overnight under rotation. The histones were pelleted by centrifugation at 16,000×g for 10 min. After complete removal of the supernatant carefully, the histone pellets were washed with ice-cold acetone to remove the left-over acids without disturbing the pellet. Finally, the pellets were air dried for 30 min at room temperature. The histone pellets were dissolved in 100 μL milliQ water and stored frozen at −20° C. Samples of 1, 3 and 5 μL of histones were separated on 15% SDS-PAGE gel and stained with Coomassie Brilliant Blue and characterized on the quality and concentration of the histone. The locations of the linker histone H1 and the core histones H3, H2B, H2A and H4 were noted.
For western blot, of total of 1 μL of histones were separated on 15% SDS-PAGE and transferred overnight at 15V on PVDF membrane. Following blocking with 5% nonfat dry milk in 1×TBST for 1 hr, the membrane containing histones lanes treated with inhibitor, were probed with H3K4Me3 (Abcam) primary antibody (1:2500) in 1×PBST. Both the membranes were incubated overnight at 4° C. under rotation. […] Histone proteins were detected by Supersignal™ West Pico PLUS Chemiluminescent substrate (ThermoFisher Scientific) using the Chemidoc XRS+ imaging system (BioRad). […]

HCT 116 cells [2] = test: Cell viability, resazurin reduction assay; format: cell-based; conditions: for loss of cell viability: HCT 116, 10 μM, cell penetrating peptide by itself
Method: (§1) FIG. 7. Cellular EP4 inhibitor delivery and viability. (A) Diagrammatic representation of EP4 inhibitor peptide showing N-terminally tagged 6-carboxyfluorescein and C-terminally tagged TAT cell delivery peptide. (B) Immunofluorescence microscopy showing internalization of EP4-TAT peptide (shown in green) to HCT 116 cells imaged 24 hr post-treatment with inhibitor. (C) Cell viability following 10 μM treatment of EP4 peptide conjugated to cell penetrating peptides, TAT, PR9 and CPP.
Cell viability was measured using the Resazurin reduction assay which indirectly quantifies living cells through the metabolically active reduction of resazurin to fluorescent resorufin. This assay allows to maintain cells viability and, therefore, to monitor cell growth with time. Exponentially growing cells were seeded into 96-well plates at the density of 2.0×10^4 cells/mL and incubated overnight. The media was replaced with fresh media prior to inhibitor treatment. Cells were treated with […] of inhibitor peptide for 24 hr. The inhibitor peptide was diluted in the cell culture media (DMEM −/−) in the absence of serum from a 5 mM stock. All the treated cells were compared to the control (TAT alone peptide with equivalent quantity of DMSO) which were considered as 100% viable. One set of wells also prepared with medium only for background subtracting and instrument gain adjustment. The experiments were carried out in triplicate and expressed as mean±SD. A 10% resazurin solution (0.15 mg/ml stock dissolved in PBS, filter sterilized and stored protected from light at 4° C.) was then added to each well and incubated for 2 hr. The fluorescence was recorded using a multiwell plate reader (Perkin Elmer) at Ex. 560 nm and Em. 610 nm.
The cell penetrating peptide tagged EP4 inhibitors are then tested for loss of cell viability on colorectal carcinoma HCT 116 cell line at a 10 μM dose (FIG. 7C).

HCT 116 cells [3] = test: Flow cytometry, PI staining (subG1 / apoptosis); format: cell-based; conditions: HCT 116, 2 μM
Method: FIG. 8. Global cell cycle distribution in EP4-TAT treated HCT 116 cells. EP4-TAT increases global H3K4me3 levels in HCT 116 cells. (A) Two-parameter flow cytometric analysis of BrdU incorporation and DNA content was performed following a 24 hr exposure of 2 μM and 5 μM EP4-TAT to HCT 116 cells. (B) The proportion of propidium iodine stained cells were represented in each phase of the cell cycle cell cycle and (C) dose-response correlation of BrdU positive cells were represented. These values are expressed relative to untreated controls. Each value in B, C represents the mean (+/−SEM) determined from 3 independent experiments.
A total of 0.3×10^6 HCT 116 cells were plated in 6 well-plate and incubated overnight. Cells were treated with the inhibitor, DMSO and TAT alone controls. For each condition, approximately 1×10^6 HCT 116 cells were collected along with the floating cells in the media by centrifugation at 300×g for 10 min. The cells were then washed with 5 mL of ice-cold PBS and re-suspended in 0.5 mL of ice-cold PBS. […] The PI-treated cells were incubated at 37° C. for 30 min and then analyzed by a flow cytometry (BD Accuri™ C6 Plus). […]
To determine whether loss in cell viability was associated with increased apoptosis, HCT 116 cells were treated with 2 μM of EP4-TAT and analyzed by PI staining.

HCT 116 cells [4] = test: Internalization of FITC-labelled peptides (fluorescence microscopy); format: cell-based; conditions: HCT 116, 10 μM, 24 hr
Method: as §1
To evaluate the internalization of FITC-labelled peptides, exponentially growing HCT 116 cells were seeded on 6 well plate at a density of 2×10^5 cells per well and incubated overnight. After overnight incubation, the media (DMEM with penstrep and 10% FBS) was replaced with fresh media supplemented with 10 μM FITC-labelled inhibitor peptides. Following the incubation (24 hr), cells were washed three times with ice cold PBS to remove the excess extracellular complexes. Cells were then stained with Hoechst dye (1:2000 dilution from 10 mg/mL stock in PBS) directly adding sufficient staining solution to the well. Cells were incubated for 10 min with the dye, protected from light. The staining solution is discarded and the cells were washed 3 times with PBS and imaged directly under fluorescent microscope.
Our EP4 KDM5C inhibitor peptide were tested for a decrease in cell viability. […]

NCI60 cancer cell lines = test: NCI60 cancer panel screen (SRB staining); format: cell-based; conditions: 48 h, normalized to TAT-alone; SNB-75, A498, RXF393, UO-31, HOP-92, NCI-226, EKVX
Method: FIG. 10. NCI60 cancer panel screen of EP4-TAT. EP4-TAT and TAT-alone peptides were sent to the National Cancer Institute—Developmental Therapeutics program for screening effect on cell growth on the NCI60 cancer panel. Cell growth was monitored post-treatment with peptide in a dose-responsive manner (n=4). EP4-TAT effects were normalized to TAT-alone effects to control for delivery peptide. Following drug addition, the plates were incubated for an additional 48 hours at 37° C., 5% CO2, 95% air, and 100% relative humidity. Cell growth was monitored by Sulforhodamine B (SRB) staining. GI50 values are defined at the concentration of EP4-TAT that decreased cell growth by 50%.
Following the receipt at the NCI, cell-active EP4-TAT was be tested for its effects on cell viability in a dose-responsive manner in the complete panel. The effect of EP4-TAT on cell viability was carried out using Sulforhodamine B (SRB) staining in all 60 cell lines (n=4). Using several measurements [time zero (Tz), control growth (C), and growth at the five inhibitor concentrations (Ti)], the percentage growth will be calculated at each inhibition concentration. […]

Question: For CPI-455 [reference compound], which IC50 (KDM5) is on record?
Answer: Its IC50 is about 25 µM.

Question: And the “global H3K4me3 levels” value [1]?
Answer: The value was “increase global H3K4me3 levels”.

Question: With FFLIPKGRRRRRRRRR [PR9] as the substance, how does the “loss of cell viability” value (HCT 116 cells [2]) read?
Answer: Its value is 30%.

Question: With “RRWRRWRRWRR [CPP, cell penetrating peptide, chemically synthesized, cationic]” as the substance, how does the “loss of cell viability” value (HCT 116 cells [2]) read?
Answer: Its value is 50%.

Question: What does the source list for “TEDSKTHHH(SEQ ID NO: 4){6-aminohexanoic acid}GRKKRRQRRRPPQ(SEQ ID NO: 45) (TEDSKTHHHGRKKRRQRRRPPQ) [EP4-TAT]”?
Answer: percentage of subG1 peak (HCT 116 cells [3]): 52.8%; loss of cell viability (comparison of cell penetrating peptide tags) (HCT 116 cells [2]; HCT 116, 10 μM dose): maximum and consistent loss of cell viability; cellular internalization (HCT 116 cells [4]): internalization; growth inhibitory (GI50) effect (NCI60 cancer cell lines): growth inhibitory (GI50) effect in 7 lines; global H3K4me3 levels [1]: increase global H3K4me3 levels; demethylation of histone H3K4 tri-methylation ([1]; HCT 116, 25 nM): inhibited; cellular KDM5C inhibition compared with CPI-455 ([1]; HCT 116, relative H3K4me3 levels): more effective
